Assay: mn = molality of the nth substance listed, in mol/kg
Settings: 100 kPa, Liquid; for electrical conductivity: Alternating current cell with electrodes; for viscosity: Falling or rolling sphere viscometry; for mass density: Vibrating tube method

CCC(=O)OCCN1CCNCC1 [2-(piperazin-1-yl)ethyl propionate] + O
Settings	electrical conductivity [S/m]	mass density [kg/m3]	viscosity [mPa·s]
293.15 K, m1 = 0.05	0.239	1000.1	1.031
293.15 K, m1 = 0.0999	0.436	1002.01	1.081
293.15 K, m1 = 0.1996	0.762	1005.79	1.172
293.15 K, m1 = 0.3	1.028	1009.71	1.247
293.15 K, m1 = 0.3997	1.25	1013.54	1.349
293.15 K, m1 = 0.5001	1.406	1017.42	1.464
293.15 K, m1 = 0.5992	1.56	1021.32	1.581
293.15 K, m1 = 0.6993	1.68	1025.14	1.726
293.15 K, m1 = 0.7997	1.77	1029.27	1.883
293.15 K, m1 = 0.9003	1.822	1033.09	2.075
293.15 K, m1 = 0.9988	1.85	1037.12	2.263
293.15 K, m1 = 1.199	1.86	1045.08	2.77
293.15 K, m1 = 1.402	1.8	1053.12	3.472
293.15 K, m1 = 1.6	1.68	1060.85	4.338
293.15 K, m1 = 1.802	1.523	1068.6	5.445
293.15 K, m1 = 1.998	1.35	1075.94	7.039
293.15 K, m1 = 2.2	1.16	1083.11	9.362
293.15 K, m1 = 2.402	0.955	1090.06	12.4
293.15 K, m1 = 2.6	0.779	1096.1	18.48
293.15 K, m1 = 2.798	0.595	1101.66	25.9
293.15 K, m1 = 3.002	0.461	1106.84	36.82
298.15 K, m1 = 0.05	0.267	998.94	0.92
298.15 K, m1 = 0.0999	0.486	1000.81	0.962
298.15 K, m1 = 0.1996	0.848	1004.54	1.039
298.15 K, m1 = 0.3	1.15	1008.41	1.103
298.15 K, m1 = 0.3997	1.4	1012.17	1.187
298.15 K, m1 = 0.5001	1.6	1015.99	1.289
298.15 K, m1 = 0.5992	1.76	1019.83	1.389
298.15 K, m1 = 0.6993	1.89	1023.57	1.51
298.15 K, m1 = 0.7997	2	1027.65	1.644
298.15 K, m1 = 0.9003	2.07	1031.4	1.805
298.15 K, m1 = 0.9988	2.12	1035.35	1.964
298.15 K, m1 = 1.199	2.13	1043.15	2.388
298.15 K, m1 = 1.402	2.06	1051.04	2.91
298.15 K, m1 = 1.6	1.94	1058.61	3.684
298.15 K, m1 = 1.802	1.76	1066.22	4.58
298.15 K, m1 = 1.998	1.57	1073.41	5.865
298.15 K, m1 = 2.2	1.36	1080.44	7.721
298.15 K, m1 = 2.402	1.16	1087.27	10.14
298.15 K, m1 = 2.6	0.931	1093.23	14.88
298.15 K, m1 = 2.798	0.738	1098.69	20.54
298.15 K, m1 = 3.002	0.578	1103.78	28.69
303.15 K, m1 = 0.05	0.296	997.53	0.828
303.15 K, m1 = 0.0999	0.538	999.38	0.864
303.15 K, m1 = 0.1996	0.941	1003.06	0.93
303.15 K, m1 = 0.3	1.28	1006.88	0.985
303.15 K, m1 = 0.3997	1.56	1010.59	1.058
303.15 K, m1 = 0.5001	1.78	1014.36	1.145
303.15 K, m1 = 0.5992	1.97	1018.15	1.232
303.15 K, m1 = 0.6993	2.11	1021.82	1.335
303.15 K, m1 = 0.7997	2.23	1025.85	1.45
303.15 K, m1 = 0.9003	2.31	1029.53	1.587
303.15 K, m1 = 0.9988	2.37	1033.42	1.722
303.15 K, m1 = 1.199	2.4	1041.09	2.079
303.15 K, m1 = 1.402	2.35	1048.83	2.519
303.15 K, m1 = 1.6	2.22	1056.27	3.163
303.15 K, m1 = 1.802	2.04	1063.74	3.903
303.15 K, m1 = 1.998	1.828	1070.79	4.953
303.15 K, m1 = 2.2	1.59	1077.7	6.458
303.15 K, m1 = 2.402	1.37	1084.44	8.415
303.15 K, m1 = 2.6	1.109	1090.28	12.17
303.15 K, m1 = 2.798	0.878	1095.67	16.6
303.15 K, m1 = 3.002	0.722	1100.68	22.77
308.15 K, m1 = 0.05	0.327	995.91	0.75
308.15 K, m1 = 0.0999	0.595	997.73	0.783
308.15 K, m1 = 0.1996	1.042	1001.37	0.839
308.15 K, m1 = 0.3	1.416	1005.16	0.887
308.15 K, m1 = 0.3997	1.729	1008.83	0.951
308.15 K, m1 = 0.5001	1.97	1012.54	1.027
308.15 K, m1 = 0.5992	2.19	1016.24	1.102
308.15 K, m1 = 0.6993	2.36	1019.8	1.19
308.15 K, m1 = 0.7997	2.49	1023.89	1.292
308.15 K, m1 = 0.9003	2.59	1027.51	1.407
308.15 K, m1 = 0.9988	2.66	1031.34	1.524
308.15 K, m1 = 1.199	2.7	1038.89	1.83
308.15 K, m1 = 1.402	2.65	1046.51	2.203
308.15 K, m1 = 1.6	2.53	1053.82	2.745
308.15 K, m1 = 1.802	2.33	1061.17	3.361
308.15 K, m1 = 1.998	2.11	1068.11	4.23
308.15 K, m1 = 2.2	1.85	1074.9	5.468
308.15 K, m1 = 2.402	1.6	1081.54	7.079
308.15 K, m1 = 2.6	1.305	1087.28	10.12
308.15 K, m1 = 2.798	1.06	1092.61	13.61
308.15 K, m1 = 3.002	0.848	1097.53	18.37
313.15 K, m1 = 0.05	0.359	994.07	0.687
313.15 K, m1 = 0.0999	0.651	995.89	0.714
313.15 K, m1 = 0.1996	1.143	999.5	0.763
313.15 K, m1 = 0.3	1.56	1003.25	0.806
313.15 K, m1 = 0.3997	1.903	1006.85	0.861
313.15 K, m1 = 0.5001	2.18	1010.55	0.928
313.15 K, m1 = 0.5992	2.43	1014.22	0.994
313.15 K, m1 = 0.6993	2.62	1017.89	1.069
313.15 K, m1 = 0.7997	2.77	1021.76	1.159
313.15 K, m1 = 0.9003	2.88	1025.33	1.258
313.15 K, m1 = 0.9988	2.96	1029.11	1.361
313.15 K, m1 = 1.199	3.02	1036.57	1.623
313.15 K, m1 = 1.402	2.99	1044.07	1.944
313.15 K, m1 = 1.6	2.84	1051.27	2.407
313.15 K, m1 = 1.802	2.65	1058.51	2.925
313.15 K, m1 = 1.998	2.4	1065.33	3.651
313.15 K, m1 = 2.2	2.13	1072.02	4.68
313.15 K, m1 = 2.402	1.843	1078.58	6.032
313.15 K, m1 = 2.6	1.53	1084.23	8.455
313.15 K, m1 = 2.798	1.215	1089.49	11.32
313.15 K, m1 = 3.002	0.987	1094.34	15.06
318.15 K, m1 = 0.05	0.392	992.04	0.632
318.15 K, m1 = 0.0999	0.711	993.83	0.658
318.15 K, m1 = 0.1996	1.25	997.43	0.7
318.15 K, m1 = 0.3	1.707	1001.16	0.737
318.15 K, m1 = 0.3997	2.08	1004.61	0.785
318.15 K, m1 = 0.5001	2.39	1008.39	0.844
318.15 K, m1 = 0.5992	2.66	1012.05	0.902
318.15 K, m1 = 0.6993	2.86	1015.67	0.969
318.15 K, m1 = 0.7997	3.04	1019.49	1.048
318.15 K, m1 = 0.9003	3.17	1023	1.133
318.15 K, m1 = 0.9988	3.26	1026.75	1.222
318.15 K, m1 = 1.199	3.34	1034.11	1.452
318.15 K, m1 = 1.402	3.31	1041.51	1.729
318.15 K, m1 = 1.6	3.19	1048.62	2.122
318.15 K, m1 = 1.802	2.96	1055.75	2.566
318.15 K, m1 = 1.998	2.7	1062.48	3.183
318.15 K, m1 = 2.2	2.4	1069.07	4.044
318.15 K, m1 = 2.402	2.11	1075.55	5.196
318.15 K, m1 = 2.6	1.77	1081.13	7.174
318.15 K, m1 = 2.798	1.411	1086.33	9.493
318.15 K, m1 = 3.002	1.17	1091.09	12.49
323.15 K, m1 = 0.05	0.426	989.83	0.587
323.15 K, m1 = 0.0999	0.772	991.62	0.61
323.15 K, m1 = 0.1996	1.36	995.19	0.645
323.15 K, m1 = 0.3	1.85	998.9	0.678
323.15 K, m1 = 0.3997	2.27	1002.44	0.722
323.15 K, m1 = 0.5001	2.61	1006.07	0.773
323.15 K, m1 = 0.5992	2.92	1009.7	0.825
323.15 K, m1 = 0.6993	3.14	1013.4	0.883
323.15 K, m1 = 0.7997	3.34	1017.08	0.953
323.15 K, m1 = 0.9003	3.48	1020.5	1.028
323.15 K, m1 = 0.9988	3.59	1024.22	1.106
323.15 K, m1 = 1.199	3.69	1031.52	1.307
323.15 K, m1 = 1.402	3.64	1038.79	1.549
323.15 K, m1 = 1.6	3.52	1045.84	1.895
323.15 K, m1 = 1.802	3.28	1052.89	2.274
323.15 K, m1 = 1.998	3	1059.54	2.797
323.15 K, m1 = 2.2	2.69	1066.05	3.527
323.15 K, m1 = 2.402	2.38	1072.45	4.525
323.15 K, m1 = 2.6	2.01	1077.96	6.112
323.15 K, m1 = 2.798	1.628	1083.11	8.069
323.15 K, m1 = 3.002	1.341	1087.78	10.49
